From DBAASP
Converted amounts (≈) assume the structure as drawn.

What was measured:
Assay in all cases: ≥ marks a high value that may be exact or a test limit, other limits are often not marked, values filed in µg/mL are converted to µM
[1] = tested on: Citrobacter freundii MTCC 1658
[2] = tested on: Alkalihalobacillus alcalophilus MTCC 860
[3] = tested on: Escherichia coli K12 MG1655
[4] = tested on: Bordetella bronchiseptica MTCC 6837
[5] = tested on: Citrobacter koseri MTCC 1657
[6] = tested on: Salmonella enterica MTCC 9844
[7] = tested on: Klebsiella pneumoniae MTCC 7407
[8] = tested on: Acinetobacter baumannii MTCC 9829
[9] = tested on: Staphylococcus haemolyticus MTCC 3383
[10] = tested on: Staphylococcus aureus MTCC 3160
[11] = tested on: Shigella flexneri MTCC 1457
[12] = tested on: Pseudomonas aeruginosa MTCC 3542
[13] = tested on: Salmonella enterica subsp. enterica serovar Typhimurium ATCC 14028
[14] = tested on: Corynebacterium glutamicum MTCC 2679
[15] = tested on: Vibrio cholerae MTCC 3904
[16] = tested on: Haemophilus influenzae MTCC 621
[17] = tested on: Proteus mirabilis MTCC 3158
[18] = tested on: Proteus vulgaris MTCC 1771
[19] = tested on: Klebsiella oxytoca MTCC 2275
[20] = tested on: Enterococcus faecalis MTCC 439
[21] = tested on: Alcaligenes faecalis MTCC 1937
[22] = tested on: Klebsiella aerogenes MTCC 111
[23] = tested on: Shigella boydii MTCC 11947
[24] = tested on: Stenotrophomonas maltophilia MTCC 1890
[25] = tested on: Pluralibacter gergoviae MTCC 3826

| Structure (SMILES) | MIC [1] [µM] | MIC [2] [µM] | MIC [3] [µM] | MIC [4] [µM] | MIC [5] [µM] | MIC [6] [µM] | MIC [7] [µM] | MIC [8] [µM] | MIC [9] [µM] | MIC [10] [µM] | MIC [11] [µM] | MIC [12] [µM] | MIC [13] [µM] | MIC [14] [µM] | MIC [15] [µM] | MIC [16] [µM] | MIC [17] [µM] | MIC [18] [µM] | MIC [19] [µM] | MIC [20] [µM] | also measured |
| --- | --- | --- | --- | --- | --- | --- | --- | --- | --- | --- | --- | --- | --- | --- | --- | --- | --- | --- | --- | --- | --- |
| CC(C)C[C@H](NC(=O)[C@H](CCCCN)NC(=O)CNC(=O)[C@H](C)NC(=O)[C@H](CCCN=C(N)N)NC(=O)[C@H](CO)NC(=O)[C@@H](N)CCC(=O)O)C(=O)N[C@@H](C)C(=O)N[C@@H](C)C(=O)N[C@@H](CCCCN)C(=O)N[C@@H](C)C(=O)N[C@@H](C)C(=O)N[C@@H](Cc1ccccc1)C(=O)N[C@@H](CCCCN)C(=O)N[C@@H](C)C(=O)N[C@@H](C)C(=O)N[C@@H](CCCCN)C(=O)N[C@@H](CCCN=C(N)N)C(=O)O [ESRAGKLAAKAAFKAAKR] | ≥ 68.3 | ≥ 68.3 | ≥ 68.3 | ≥ 68.3 | ≥ 68.3 | ≥ 68.3 | ≥ 68.3 | ≥ 68.3 | ≥ 68.3 | ≥ 68.3 | ≥ 68.3 | ≥ 68.3 | > 68.3 | ≥ 68.3 | ≥ 68.3 | ≥ 68.3 | ≥ 68.3 | ≥ 68.3 | ≥ 68.3 | ≥ 68.3 | MIC [21]: ≥ 68.3 µM; MIC [22]: ≥ 68.3 µM; MIC [23]: ≥ 68.3 µM; MIC [24]: ≥ 68.3 µM; MIC [25]: ≥ 68.3 µM |
| CC(C)C[C@H](NC(=O)[C@H](Cc1cnc[nH]1)NC(=O)[C@H](CCCN=C(N)N)NC(=O)[C@H](CC(C)C)NC(=O)[C@H](CCCN=C(N)N)NC(=O)[C@H](CCC(N)=O)NC(=O)[C@@H](NC(=O)[C@H](C)NC(=O)[C@H](CCCN=C(N)N)NC(=O)[C@H](CCCN=C(N)N)NC(=O)[C@H](C)NC(=O)[C@@H](NC(=O)[C@H](CCCN=C(N)N)NC(=O)[C@H](Cc1c[nH]c2ccccc12)NC(=O)[C@@H](N)CCC(=O)O)C(C)C)C(C)C)C(=O)N[C@@H](C)C(=O)N[C@@H](CCCN=C(N)N)C(=O)N[C@@H](CCCN=C(N)N)C(=O)N[C@@H](Cc1ccc(O)cc1)C(=O)N[C@@H](Cc1cnc[nH]1)C(=O)O [EWRVARRAVQRLRHLARRYH] | 24.3 (≈ 64 µg/mL) | 6.08 (≈ 16 µg/mL) | 6.08 (≈ 16 µg/mL) | 0.76 (≈ 2 µg/mL) | 6.08 (≈ 16 µg/mL) | 6.08 (≈ 16 µg/mL) | ≥ 48.7 | 6.08 (≈ 16 µg/mL) | 6.08 (≈ 16 µg/mL) | ≥ 48.7 | 0.38 (≈ 1 µg/mL) | ≥ 48.7 | 6.08 (≈ 16 µg/mL) | 0.38 (≈ 1 µg/mL) | ≥ 48.7 | 3.04 (≈ 8 µg/mL) | ≥ 48.7 | ≥ 48.7 | 3.04 (≈ 8 µg/mL) | ≥ 48.7 | MIC [21]: ≥ 48.7 µM; MIC [22]: ≥ 48.7 µM; MIC [23]: 3.04 µM (≈ 8 µg/mL); MIC [24]: 24.3 µM (≈ 64 µg/mL); MIC [25]: ≥ 48.7 µM |
